According to US5739111A, “Modulating body/cranial hair growth with derivatives of the α-type melanocyte-stimulating hormone” (Societe L'Oreal S.A., priority 1995, dated 1998):
Where a SMILES comes first, the peptide text is derived from it.

Tested on: hair follicles
Assay: lengthening and survival of hair follicles maintained in vitro
Assay type: cell-based
Set-up: Mean lengthening: unit not given here
Procedure: Viable in vitro hair follicles were prepared according to the technique described in French Patent Application No. 95-08465, filed July 12, 1995 and assigned to the assignee hereof.
From a scalp biopsy, a rather fine strip of scalp was isolated using a scalpel. The adipose tissue surrounding the follicles was removed with microforceps while avoiding damage to the hair bulb. The follicles were cut out with a scalpel under a microscope in order to separate them from their epidermal and dermal surroundings.
The follicles were then cultured in the wells of Costar-type 24-well plates, at the rate of one follicle per well. Each well contained 0.5 ml of Williams' medium E, to which had been added penicillin and Streptomycin to a final concentration of 50 IU/ml, glutamine to 2 mM, bovine insulin to 0.01 mg/ml and hydrocortisone to 0.04 mg/ml.
The follicles were then measured using a microscope equipped with a micrometric eyepiece.
After 24 hours, the follicles were again measured and those which had lengthened by less than 0.3 divisions of the micrometer, corresponding to 0.16 mm, were discarded.
The five (5) following culturing conditions were tested:
Condition A: Complete Williams' medium E, without peptide.
Condition B: Complete Williams' medium E+10 mM Ac-LPV-NH2.
Condition C: Complete Williams' medium E+1 mM Ac-LPV-N2.
Condition D: Complete Williams' medium E+0.1 mM Ac-LPV-NH2.

[1] = summary in words, versus medium without peptide

CC(=O)N[C@@H](CCCCN)C(=O)N1CCC[C@H]1C(=O)N[C@H](C(N)=O)C(C)C [Acetyl-Lys-Pro-Val-NH2] (Ac-Lys-Pro-Val-NH2)
Mean lengthening (1 mM (Conditions C, E) in complete Williams' medium E, day 0): 0.00
% Survival (1 mM (Conditions C, E), day 0): 100%
% Survival (1 mM (Conditions C, E), day 1): 100%
Mean lengthening (1 mM (Conditions C, E), day 1): 0.38
% Survival (1 mM (Conditions C, E), day 4): 100%
Mean lengthening (1 mM (Conditions C, E), day 4): 1.05
% Survival (1 mM (Conditions C, E), day 5): 100%
Mean lengthening (1 mM (Conditions C, E), day 5): 1.21
% Survival (1 mM (Conditions C, E), day 6): 100%
Mean lengthening (1 mM (Conditions C, E), day 6): 1.28
% Survival (1 mM (Conditions C, E), day 7): 91%
Mean lengthening (1 mM (Conditions C, E), day 7): 1.42
% Survival (1 mM (Conditions C, E), day 8): 55%
Mean lengthening (1 mM (Conditions C, E), day 8): 1.39
% Survival (1 mM (Conditions C, E), day 11): 36%
Mean lengthening (1 mM (Conditions C, E), day 11): 1.70
Mean lengthening (Condition B, 10 mM in complete Williams' medium E, day 0): 0.00
% Survival (Condition B, 10 mM, day 0): 100%
% Survival (Condition B, 10 mM, day 1): 100%
Mean lengthening (Condition B, 10 mM, day 1): 0.38
% Survival (Condition B, 10 mM, day 4): 100%
Mean lengthening (Condition B, 10 mM, day 4): 1.11
% Survival (Condition B, 10 mM, day 5): 100%
Mean lengthening (Condition B, 10 mM, day 5): 1.33
% Survival (Condition B, 10 mM, day 6): 100%
Mean lengthening (Condition B, 10 mM, day 6): 1.43
% Survival (Condition B, 10 mM, day 7): 100%
Mean lengthening (Condition B, 10 mM, day 7): 1.54
% Survival (Condition B, 10 mM, day 8): 92%
Mean lengthening (Condition B, 10 mM, day 8): 1.74
% Survival (Condition B, 10 mM, day 11): 83%
Mean lengthening (Condition B, 10 mM, day 11): 1.96
% Survival (Condition B, 10 mM, day 12): 42%
Mean lengthening (Condition B, 10 mM, day 12): 2.40
Mean lengthening (Condition D, 0.1 mM in complete Williams' medium E, day 0): 0.00
% Survival (Condition D, 0.1 mM, day 0): 100%
% Survival (Condition D, 0.1 mM, day 1): 100%
Mean lengthening (Condition D, 0.1 mM, day 1): 0.37
% Survival (Condition D, 0.1 mM, day 4): 100%
Mean lengthening (Condition D, 0.1 mM, day 4): 1.10
% Survival (Condition D, 0.1 mM, day 5): 100%
Mean lengthening (Condition D, 0.1 mM, day 5): 1.22
% Survival (Condition D, 0.1 mM, day 6): 100%
Mean lengthening (Condition D, 0.1 mM, day 6): 1.28
% Survival (Condition D, 0.1 mM, day 7): 83%
Mean lengthening (Condition D, 0.1 mM, day 7): 1.42
% Survival (Condition D, 0.1 mM, day 8): 50%
Mean lengthening (Condition D, 0.1 mM, day 8): 1.58
% Survival (Condition D, 0.1 mM, day 11): 42%
Mean lengthening (Condition D, 0.1 mM, day 11): 2.08
% Survival (Condition D, 0.1 mM, day 12): 17%
Mean lengthening (Condition D, 0.1 mM, day 12): 2.11
effect on lengthening of the cultured hair follicles [1]: promoted the lengthening
effect on survival time of the cultured hair follicles [1]: increased their survival time
